Measurements from patent US8178530B2, “Imidazolopyrazine compounds useful for the treatment of degenerative and inflammatory diseases” (Janssen Pharmaceutica NV, priority 2006, dated 2012).

Columns and labels:
MMP1 expression by SFs = experiment: 'MMP assay': MMP1 expression by 'complex trigger' activated synovial fibroblasts (MMP1 ELISA); type: cell-based, human; conditions: Homo sapiens, Fibroblast, RASFs, 48 hrs
[1] = test system: TNFα release by human PBMCs; experiment: Cytokine release by LPS-stimulated human PBMCs (TNFα ELISA); type: cell-based; conditions: PBMC, LPS 1 μg/mL, 24 hr
Procedure: Human peripheral blood mononuclear cells (PBMCs) are isolated from “buffy coats” prepared from the blood of healthy volunteers, isolated essentially according to method of Bøyum (1984). In brief, buffy coat is diluted 1:1 with 1×PBS (Gibco) and 30 mL is carefully put on top of 20 mL Lymphoprep™ (Lucron Bioproducts) in 50 mL Falcon tubes. After centrifugation (35 min, 400 g, 18° C.) the mononuclear cells are collected from the white interphase and washed 3 times with 1×PBS by resuspending and centrifugation (10 min, 200 g). Isolated PBMCs are finally resuspended in RPMI 1640 (Cat. No. 21875, Gibco) that is supplemented with 10% heat-inactivated FBS (Hyclone).
For the assay PBMCs are seeded at 2.5E6 cells/mL in 160 μL in 96-well plates (Nunc). Serial dilution of the test compounds are made first in DMSO (Sigma) and then diluted 50-fold in M199 medium (Gibco) containing 1% heat-inactivated FBS. Compounds are further 1/10 diluted in the assay plates to obtain final DMSO concentration of 0.2%. Cells are preincubated with the compounds for 1 hr at 37° C., 5% CO2. Then, cells are stimulated with LPS (Escherichia coli serotype 026:B6, Cat. No. L2654, Sigma) that is added in a volume of 20 μL to a final concentration of 1 μg/mL and cells are further cultured for 24 hr. The plates are centrifuged and the supernatant is collected and stored at −80° C. until analysis of appropriate dilutions in ELISAs.
The following 384-well chemiluminescent ELISA protocol was developed to measure TNFα levels in the supernatant: White Lumitrac 600 384-well plates (Greiner) are coated with (40 μL/well) anti-TNFα capture antibody (Cat. No. 551220, BD Pharmingen) that is diluted to 1 μg/mL in 1×PBS (Gibco). After overnight incubation at 4° C., plates are washed with 1×PBS (80 g NaCl, 2 g KCl (Sigma), 11.5 g Na2HPO4.7H2O and 2 g KH2PO4 in 10 L milliQ; pH 7.4) and blocked with 100 μL/well buffer B (1×PBS containing 1% BSA (Sigma), 5% sucrose (Sigma) and 0.05% NaN3 (Sigma)). After 4 hr incubation at RT, blocking buffer is removed and plates are washed once with PBST (1×PBS with 0.05% Tween-20 (Sigma)). Then, 40 μL of sample is transferred to the ELISA plates and plates are incubated at 4° C. Next day, plates are washed 3 times (twice with PBST and once with PBS) and 35 μL/well biotinylated anti-TNFα antibody (Cat. No. 554511, BD Pharmingen) diluted first to a concentration of 250 ng/ml in buffer D (1×PBS with 1% BSA) is added. After 2 h of incubation at RT, plates are washed as described above and 35 μL/well of a 1/2000 dilution of streptavidin-HRP conjugate (Cat. No. SNN2004, Biosource) in buffer D is added. After 45 min, plates are washed as described above and incubated for 5 min with 50 μL/well BM Chemiluminescence ELISA Substrate POD (Roche). Readout is performed on the Luminoscan Ascent Luminometer (Labsystems) with an integration time of 100 msec delivering raw data (RLU: relative luminescence units). The following controls are included in the experiments, a maximal signal control, in which the cells are activated by LPS but only the 0.2% DMSO vehicle (and thus no compound) is added. This control indicates the maximal level of TNFα that can be achieved in the test. A minimal signal control is also included in these experiments. Here, cells are not triggered. This control returns the basal TNFα levels produced by the PBMCs. The percent inhibition (PIN) of the TNFα release, achieved by the compounds is then calculated based on the RLU data returned by the ELISA with following formula: 100−[((TNFα level compound X at concentration Y−minimal TNFα levels)/(maximal TNFα levels−minimal TNFα levels))×100]. Where compounds are tested at 8 concentrations (1/3 serial dilution), EC50-values can be calculated by curve fitting of the means of the PIN data achieved for a compound at each test concentration. […]

SMILES | EC50 (MMP1 expression by SFs) | EC50 [1]
c1cn2c(-c3cn[nH]c3)cnc(Nc3ccc(N4CCOCC4)cc3)c2n1 [Compound 1, (4-Morpholin-4-yl-phenyl)-[5-(1H-pyrazol-4-yl)-imidazo[1,2-a]pyrazin-8-yl]-amine] | > 1000 nM | > 1000 nM
CN1CCN(c2ccc(Nc3ncc(-c4cc[nH]c(=O)c4)n4ccnc34)cc2)CC1 [Compound 102, 4-{8-[4-(4-Methylpiperazin-1-yl)-phenylamino]imidazo[1,2-a]pyrazin-5-yl}-1H-pyridin-2-one] | > 1000 nM | > 1000 nM
NC(=O)c1ccc(-c2cnc(Nc3ccc(N4CCOCC4)cc3)c3nccn23)cc1 [Compound 13] | 501 to 1000 nM | > 1000 nM
O=C1NCc2cc(-c3cnc(Nc4ccc(N5CCOCC5)cc4)c4nccn34)ccc21 [Compound 178, 5-[8-(4-Morpholin-4-yl-phenylamino)-imidazo[1,2-a]pyrazin-5-yl]-2,3-dihydro-isoindol-1-one] | 101 to 500 nM | 1 to 100 nM
NC(=O)c1coc(-c2cnc(Nc3ccc(N4CCOCC4)cc3)c3nccn23)c1 [Compound 179, 5-[8-(4-Morpholin-4-yl-phenylamino)-imidazo[1,2-a]pyrazin-5-yl]-furan-3-carboxylic acid amide] | 101 to 500 nM | > 1000 nM
NC(=O)c1cc(-c2cnc(Nc3ccc(N4CCOCC4)cc3)c3nccn23)cs1 [Compound 177, 4-[8-(4-Morpholin-4-yl-phenylamino)-imidazo[1,2-a]pyrazin-5-yl]-thiophene-2-carboxylic acid amide] | 101 to 500 nM | > 1000 nM
O=c1cc(-c2cnc(Nc3ccc(N4CCOCC4)cc3)c3nccn23)cc[nH]1 [Compound 85, 4-[8-(4-Morpholin-4-yl-phenylamino)imidazo[1,2-a]pyrazin-5-yl]-1H-pyridin-2-one] | 501 to 1000 nM | > 1000 nM
NC(=O)c1ccc(-c2cnc(Nc3ccc(N4CCOCC4)cc3)c3nccn23)s1 [Compound 152] | 101 to 500 nM | 101 to 500 nM
NC(=O)c1cc(-c2cnc(Nc3ccc(N4CCOCC4)cc3)c3nccn23)co1 [Compound 203] | 501 to 1000 nM | > 1000 nM
